Here are results for 14 compounds from US10005768B2, “Carboxamide derivatives and use thereof” (Purdue Pharma L.P., priority 2013, dated 2018).

The term IC50 denotes the midpoint of a concentration-inhibition curve.

Chain of human Nav1.7 (Q15858 other isoform, or with tags, fused parts or gaps): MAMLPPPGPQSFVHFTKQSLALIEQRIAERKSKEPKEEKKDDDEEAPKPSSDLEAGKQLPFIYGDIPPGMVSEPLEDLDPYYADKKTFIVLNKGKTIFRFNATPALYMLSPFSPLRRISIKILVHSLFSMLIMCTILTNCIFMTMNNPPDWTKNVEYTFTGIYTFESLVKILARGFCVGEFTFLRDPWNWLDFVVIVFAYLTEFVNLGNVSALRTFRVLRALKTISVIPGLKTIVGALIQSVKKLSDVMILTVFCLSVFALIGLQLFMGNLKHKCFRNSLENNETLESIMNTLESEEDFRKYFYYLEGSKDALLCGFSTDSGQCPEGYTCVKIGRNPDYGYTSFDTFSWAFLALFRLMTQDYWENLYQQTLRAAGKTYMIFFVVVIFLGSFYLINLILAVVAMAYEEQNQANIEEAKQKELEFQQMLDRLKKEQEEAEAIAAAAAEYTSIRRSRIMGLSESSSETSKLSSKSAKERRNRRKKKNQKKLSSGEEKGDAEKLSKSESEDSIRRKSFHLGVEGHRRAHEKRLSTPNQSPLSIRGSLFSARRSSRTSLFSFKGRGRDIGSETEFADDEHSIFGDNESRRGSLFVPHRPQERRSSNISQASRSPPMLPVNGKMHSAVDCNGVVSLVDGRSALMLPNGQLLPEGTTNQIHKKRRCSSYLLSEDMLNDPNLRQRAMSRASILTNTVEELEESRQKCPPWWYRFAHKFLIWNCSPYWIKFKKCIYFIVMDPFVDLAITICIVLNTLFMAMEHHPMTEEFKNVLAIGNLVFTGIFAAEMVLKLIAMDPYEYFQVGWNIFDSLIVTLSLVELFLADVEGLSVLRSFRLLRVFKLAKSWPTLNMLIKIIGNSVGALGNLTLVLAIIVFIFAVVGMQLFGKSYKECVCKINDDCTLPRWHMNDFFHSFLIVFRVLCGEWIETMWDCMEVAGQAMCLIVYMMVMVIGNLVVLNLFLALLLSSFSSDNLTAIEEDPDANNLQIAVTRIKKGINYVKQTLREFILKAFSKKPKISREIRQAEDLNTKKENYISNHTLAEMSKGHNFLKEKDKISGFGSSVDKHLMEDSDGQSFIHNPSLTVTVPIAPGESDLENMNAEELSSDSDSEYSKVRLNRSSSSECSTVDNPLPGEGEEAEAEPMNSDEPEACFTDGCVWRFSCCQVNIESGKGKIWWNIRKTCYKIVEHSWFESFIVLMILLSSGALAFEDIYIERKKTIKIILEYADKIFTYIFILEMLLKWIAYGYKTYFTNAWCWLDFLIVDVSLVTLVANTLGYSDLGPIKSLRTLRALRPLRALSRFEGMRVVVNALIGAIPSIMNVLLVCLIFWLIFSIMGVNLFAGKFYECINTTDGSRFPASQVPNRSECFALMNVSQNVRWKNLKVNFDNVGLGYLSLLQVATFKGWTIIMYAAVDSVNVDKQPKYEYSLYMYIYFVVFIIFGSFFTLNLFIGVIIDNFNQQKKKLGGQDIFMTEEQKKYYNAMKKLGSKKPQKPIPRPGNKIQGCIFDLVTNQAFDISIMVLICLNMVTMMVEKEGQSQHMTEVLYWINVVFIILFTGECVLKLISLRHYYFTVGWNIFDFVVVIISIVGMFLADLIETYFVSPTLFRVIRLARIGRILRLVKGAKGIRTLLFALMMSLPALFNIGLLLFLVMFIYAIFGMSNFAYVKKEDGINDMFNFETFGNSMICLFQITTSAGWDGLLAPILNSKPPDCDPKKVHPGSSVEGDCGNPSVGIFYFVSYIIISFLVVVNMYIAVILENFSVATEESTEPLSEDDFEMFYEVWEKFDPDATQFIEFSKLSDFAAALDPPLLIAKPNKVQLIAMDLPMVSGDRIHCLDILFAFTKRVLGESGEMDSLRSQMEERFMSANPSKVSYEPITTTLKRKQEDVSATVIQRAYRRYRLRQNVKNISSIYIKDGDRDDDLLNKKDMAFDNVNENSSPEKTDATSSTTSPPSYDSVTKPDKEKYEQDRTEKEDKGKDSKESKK

The target of the experiment is human Nav1.7 (Homo sapiens (Human), UniProt Q15858). Kind of experiment: FLIPR sodium dye assay (CoroNa Green AM Na+ dye, primary fluorescence assay). It counts as cell-based. The conditions noted are these: recombinant Nav1.7/HEK293 cells. As to the method:
In vitro assays were performed in a recombinant cell line expressing cDNA encoding the alpha subunit (Nav1.7, SCN9a, PN1, NE) of human Nav1.7 (Accession No. NM_002977). The cell line was provided by investigators at Yale University (Cummins et al, J. Neurosci. 18(23): 9607-9619 (1998)). For dominant selection of the Nav1.7-expressing clones, the expression plasmid co-expressed the neomycin resistance gene. The cell line was constructed in the human embryonic kidney cell line, HEK293, under the influence of the CMV […] promoter, and stable clones were selected using limiting dilution cloning and antibiotic selection using the neomycin analogue, G418. Recombinant beta and gamma subunits were not introduced into this cell line. Additional cell lines expressing recombinant Nav1.7 cloned from other species can also be used, alone or in combination with various beta subunits, gamma subunits or chaperones.
Unless otherwise noted, cell culture reagents were purchased from Mediatech of Herndon, Va. The recombinant Nav1.7/HEK293 cells were routinely cultured in growth medium consisting of Dulbecco's […] essential medium containing 10% fetal bovine serum (FBS, Hyclone, Thermo Fisher Scientific, Logan, Utah), 100 U/mL penicillin, 100 μg/mL streptomycin, 2-4 mM L-glutamine, and […] G418. For natural, non-recombinant cell lines, the selective antibiotic was omitted, and additional media formulations can be applied as needed.
The final buffer consisted of 20 mM Hepes, pH 7.3, 1.261 mM CaCl2, 0.493 mM MgCl2, 0.407 mM Mg(SO)4, 5.33 mM KCl, 0.441 mM KH2PO4, 137 mM NaCl, 0.336 mM Na2HPO4 and […] D-glucose (Hanks et al., Proc. Soc. Exp. Biol. Med. 71:196 (1949)), and the simple formulation was typically the basic buffer throughout the assay (i.e., all wash and addition steps).
The fluorescence indicator used in the primary fluorescence assay was the cell permeant version of CoroNa™ Green (Invitrogen, Molecular Probes, Eugene, Oreg.), a dye that emits light in the fluorescence range (Harootunian et al., J. Biol. Chem. 264(32):19458-19467 (1989)). The intensity of this emission, but not the wavelength range, is increased when the dye is exposed to Na^+ ions, which it can bind with partial selectivity. Cells expressing Nav1.7 or other sodium channels were loaded with the CoroNa™ Green dye immediately in advance of the fluorescence assay, and then, after agonist stimulation, the mobilization of Na^+ ions was detected as the Na^+ ions flowed from the extracellular fluid into the cytoplasm through the activated sodium channel pores. The dye was stored in the dark as a lyophilized powder, and then an aliquot was dissolved immediately before the cell loading procedure, according to the instructions of the manufacturer, to a stock concentration of 10 mM in DMSO. It was then diluted in the assay buffer to a 4× concentrated working solution, so that the final concentration of dye in the cell loading buffer was 5 μM.
In the fluorescence assays, two agonists were used in combination, namely 1) veratridine; and 2) the venom from the yellow scorpion, Leiurus quinquestriatus hebraeus. Veratridine is an alkaloid small molecule that facilitates the capture of channel openings by inhibiting inactivation, and the scorpion venom is a natural preparation that includes peptide toxins selective for different subsets of voltage-gated sodium channels. These scorpion toxins inhibit the fast inactivation of their cognate target channels. Stock solutions of the agonists were prepared to 40 mM in DMSO (veratridine) and 1 mg/mL in dH2O (scorpion venom), and then diluted to make a 4× or 2× stock (depending on the particular assay) in assay buffer, the final concentration being 100 μM (veratridine) and 10 μg/mL (scorpion venom). Both of the agonists were purchased from Sigma Aldrich, St. Louis, Mo.
Test compounds were dissolved in DMSO to yield 10 mM stock solutions. […]
For the compound `NC(=O)c1cccc(-c2ccc(Oc3ccc(C(F)(F)F)cc3CN3CCC(F)(F)C3)cc2)n1` [compound 45, 6-(4-(2-((3,3-difluoropyrrolidin-1-yl)methyl)-4-(trifluoromethyl)phenoxy)phenyl) picolinamide], the IC50 is 0.113 ± 0.034 µM.

As to `NC(=O)c1cccc(-c2ccc(Oc3ccc(C(F)(F)F)cc3CN[C@H]3CCNC3=O)cc2)n1` [compound 46, (S)-6-(4-(2-(((2-oxopyrrolidin-3-yl)amino)methyl)-4-(trifluoro-methyl)phenoxy)phenyl)picolin-amide], the IC50 came to 2.58 ± 0.692 µM.

With `CC(C)(C)OC(=O)NC1CCN(Cc2cc(C(F)(F)F)ccc2Oc2ccc(-c3cccc(C(N)=O)n3)cc2)C1` (centres unmarked) [compound 47, tert-butyl (1-(2-(4-(6-carbamoylpyridin-2-yl)phenoxy)-5-(trifluoromethyl)-benzyl)pyrrolidin-3-yl)carbamate], the concentration for half-maximal inhibition (IC50) is 0.949 ± 0.168 µM.

Regarding `CC(C)(C)OC(=O)N1CCC(NCc2cc(C(F)(F)F)ccc2Oc2ccc(-c3cccc(C(N)=O)n3)cc2)C1` (centres unmarked) [compound 48, tert-butyl 3-((2-(4-(6-carbamoylpyridin-2-yl)phenoxy)-5-(trifluoromethyl)benzyl)-amino)pyrrolidine-1-carboxylate], the IC50 is 0.913 ± 0.016 µM.

As to `NC(=O)c1cccc(-c2ccc(Oc3ccc(C(F)(F)F)cc3CN3CCCCC3)cc2)n1` [compound 49, 6-(4-(2-(piperidin-1-ylmethyl)-4-(trifluoromethyl)phenoxy)phenyl) picolinamide], the IC50 came to 0.096 ± 0.01 µM.

Turning to `NC(=O)c1cccc(-c2ccc(Oc3ccc(C(F)(F)F)cc3CN3CCC3)cc2)n1` [compound 50, 6-(4-(2-(azetidin-1-ylmethyl)-4-(trifluoromethyl)phenoxy)phenyl) picolinamide], the IC50 is 0.768 ± 0.051 µM.

As to `NC(=O)c1cccc(-c2ccc(Oc3ccc(C(F)(F)F)cc3CN3CCCC(O)C3)cc2)n1` (centres unmarked) [compound 51, 6-(4-(2-((3-hydroxypiperidin-1-yl)methyl)-4-(trifluoromethyl)-phenoxy)phenyl)picolinamide], the IC50 was found to be 0.566 ± 0.062 µM.

Turning to `CN(CCO)Cc1cc(C(F)(F)F)ccc1Oc1ccc(-c2cccc(C(N)=O)n2)cc1` [compound 52, 6-(4-(2-(((2-hydroxyethyl)-(methyl)amino)methyl)-4-(trifluoromethyl)phenoxy)phenyl) picolinamide], the IC50 was 1.1 ± 0.107 µM.

Regarding `NC(=O)c1cccc(-c2ccc(Oc3ccc(C(F)(F)F)c(CN4CCC4)c3)cc2)n1` [compound 53, 6-(4-(3-(azetidin-1-ylmethyl)-4-(trifluoromethyl)phenoxy)phenyl) picolinamide], the IC50 was 0.384 ± 0.106 µM.

`NC(=O)c1cccc(-c2ccc(Oc3ccc(C(F)(F)F)c(CN4CC[C@H](O)C4)c3)cc2)n1` [compound 54, (S)-6-(4-(3-((3-hydroxy-pyrrolidin-1-yl)methyl)-4-(trifluoromethyl)phenoxy)-phenyl)picolinamide]: the IC50 was determined as 0.366 ± 0.085 µM.

Consider `NC(=O)c1cccc(-c2ccc(Oc3ccc(C(F)(F)F)c(CNCCC(F)(F)F)c3)cc2)n1` [compound 55, 6-(4-(4-(trifluoromethyl)-3-(((3,3,3-trifluoropropyl)amino)-methyl)phenoxy)phenyl)picolin-amide], for which the IC50 was 0.174 ± 0.018 µM.

As for `NC(=O)c1cccc(-c2ccc(Oc3ccc(C(F)(F)F)c(CN4CCCC4)c3)cc2)n1` [compound 56, 6-(4-(3-(pyrrolidin-1-ylmethyl)-4-(trifluoromethyl)phenoxy)phenyl) picolinamide], the IC50 was found to be 0.173 ± 0.033 µM.

On to `CC(c1cc(C(F)(F)F)ccc1Oc1ccc(-c2cccc(C(N)=O)n2)cc1)N1CCCC1` (centres unmarked) [compound 58, 6-(4-(2-(1-(pyrrolidin-1-yl)ethyl)-4-(trifluoromethyl)phenoxy)-phenyl)picolinamide], for which the IC50 amounted to 0.231 ± 0.008 µM.

In the case of `NC(=O)c1cccc(-c2ccc(Oc3cccc(CN4CCCC4)n3)cc2)n1` [compound 59, 6-(4-((6-(pyrrolidin-1-ylmethyl)pyridin-2-yl)oxy)phenyl)picolinamide], the IC50 was more than 20 µM.
